Measured values reported in US9808527B2, “Methods and compositions for treating HIV infections” (priority 2006, dated 2017).
Entries after “also recorded” stand apart in the source; their conditions may differ. Like-named read-outs stand apart in the source and are kept apart here.

Assays:
[1] = test system: HIV; conditions: read-out: ID50 (the source's name); cited from earlier work
[2] = target: T1, CFP- and YFP-tagged HIV-1 protease subunits (Human immunodeficiency virus type 1 group M subtype B, UniProt P12497); type: cell-based; conditions: for dose response of dimerization inhibition: 0.001-10 μM (GRL-0026A 0.1-10 μM), 72 hrs
T1 construct: expressed in transfected cells; host or cells: Cos-7
Procedure: After 72 hr, cultured cells were examined in the FRET-HIV-1 assay system using confocal microscopy Fluoview FV500 confocal laser scanning microscope, and CFP^A/B were determined and plotted. […] The FRET efficiency was determined following acceptor photobleaching as previously described (Bastiaens et al., EMBO 1996; Siegel et al., Science's stke 2000; Firulli et al., Nature genetics, 2005; Szczesna et al., JBC 2003). Dequenching of the donor CFP by selective photobleaching of the acceptor YFP was performed by first obtaining YFP and CFP images at the same focal plane, followed by illuminating for 3 min the same image at wavelength of 488 nm with a laser power set at the maximum intensity to bleach YFP and re-capturing the same CFP and YFP images. The changes in the CFP and YFP fluorescence intensity in the images of selected regions were examined and quantified using Olympus FV500 Image software system. Background values were obtained from the regions where no cells were present and were subtracted from the values for the cells examined in all calculations. For each chimeric protein, the data were obtained from at least three independent experiments. FRET efficiency was determined using the formula: ET=(1−(IDA/ID))×100, where IDA and ID represent the steady-state donor fluorescence in the presence and absence of the acceptor, respectively. Digitized image data obtained from the experiment were prepared for presentation using Photoshop 6.0 (Adobe systems, Mountain View, Calif.). Ratios of intensities of ECFP fluorescence after photobleaching to ECFP fluorescence prior to photobleaching were determined. The ratios of more than 1 indicate that dimerization of CFP- and YFP-tagged protease subunits occurred and those of less than 1 indicate that dimerization was blocked by the test agent.
Generation of FRET-based HIV-1 expression assay. The basic concepts of the intermolecular fluorescence resonance energy transfer (FRET)-based HIV-1-expression assay (FRET-HIV-1 assay) are shown in FIG. 7. Within a plasmid (pHIV-1NL4-3), which encodes a full-length molecular infectious HIV-1 clone, the gene encoding a cyan fluorescent donor protein (CFP) was attached to the downstream end (C-terminus) of the gene encoding an HIV-1 protease subunit through the flexible linker added (five alanines), generating pHIV-1NL4-3/CFP (FIG. 7A). Within the other plasmid (pHIV-1NL4-3), the gene encoding a yellow fluorescent acceptor protein (YFP) was attached to the downstream end of protease-encoding gene in the same manner, generating pHIV-1NL4-3/YFP. Both CFP and YFP were designed to have phenylalanine and proline in the connection with reverse transcriptase so that the protease is cleaved from reverse transcriptase when two subunits dimerize and the dimerized protease acquires enzymatic activity. […] A focused laser beam excitation of CFP (triggered by Helium-Cadmium laser) results in rapid energy transfer to YFP, and most of the fluorescence photons are emitted by YFP (Miyawaki et al. Nature 388(6645):882-887 (1997)). If the dimerization is blocked, the average distance between CFP and YFP becomes larger and the energy transfer rate is decreased and the fraction of photons emitted by YFP is lowered.
In order to interpret the energy transfer efficiency quantitatively, an acceptor photobleaching technique was used, in which the change in CFP emission quenching is measured by comparing the value before and after selectively photobleaching YFP, which prevents problems associated with variable expression levels.

[3] = test system: HIV-1LAI; assay: MTT assay, MT-2 cells exposed to HIV-1LAI (acute HIV-1 infection assay); type: cell-based
Procedure: Drug susceptibility assay. The susceptibility of HIV-1LAI, HIV-2EHO, HIV-2ROD, to various drugs and the cytotoxicity of those drugs was determined by using the MTT assay. Briefly, MT-2 cells (2×10^4/mL) were exposed to 100 TCID50s (50% tissue culture infectious doses) of HIV-1LAI, HIV-2EHO, or HIV-2ROD in the presence or absence of various concentrations of drugs in 96-well microculture plates and were incubated at 37° C. for 7 days. After 100 μL of the medium was removed from each well, 3-(4,5-dimethylthiazol-2-yl)-2,5-diphenyltetrazolium bromide (MTT) solution (10 μL, 7.5 mg/mL in phosphate-buffered saline) was added to each well in the plate, followed by incubation at 37° C. for 4 hours. […] All assays were performed in duplicate or triplicate. To determine the sensitivity of HIV-1Ba-L, HIV-1ERS104 pre, and clinical multi-drug-resistant HIV-1 isolates and different subtypes of HIV-1 isolates to drugs, phytohemagglutinin-activated peripheral blood mononuclear cells (PHA-PBMs; 10^6/mL) were exposed to 50 TCID50 (50% tissue infectious dose) of each HIV-1 isolate and cultured in the presence or absence of various concentrations of drugs in 10-fold serial dilutions in 96-well microtiter culture plates. To determine the drug susceptibility of certain laboratory HIV-1 strains (HIV-1NL4-3), MT-4 cells were used as target cells. MT-4 cells (10^5/mL) were exposed to 100 TCID50 of wild type HIV-1NL4-3 and PI-resistant HIV-1NL4-3 in the presence or absence of various concentrations of drugs and were incubated at 37° C. On day 7 of culture, the supernatant was harvested and the amount of p24 Gag protein was determined by using a fully automated chemiluminescent enzyme immunoassay system (Lumipulse F; Fujirebio Inc., Tokyo, Japan) (22). […] All assays were performed in duplicate or triplicate.

[4] = target: T2, HIV-1 protease (Human immunodeficiency virus type 1 group M subtype B, UniProt P04585, C555A/C583A/L521I/L551I/Q495K/V491I); assay: biochemical; type: biochemical
T2 construct: Wild-type PR at final concentrations of 160-190 nM were added
Source text: Enzyme kinetics. The chromogenic substrate Lys-Ala-Arg-Val-Nle-p-nitroPhe-Glu-Ala-Nle-amide (Sigma, St. Louis, Mo.) was used to determine the kinetic parameters (Kovalevsky et al. J Mol Biol 363(1):161-173 (2006), Ghosh et al. J Med Chem 49(17):5252-5261 (2006)). […] The kcat and Km values were obtained employing standard data fitting techniques for a reaction obeying Michaelis-Menten kinetics. The data curves were fitted using SigmaPlot 8.0.2 (SPSS Inc., Chicago, Ill.). The active enzyme concentrations were calculated from the intercept of the linear fit to the IC50 versus [S] plots with the IC50 axis. The Ki values were obtained from the IC50 values estimated from an inhibitor dose-response curve with the spectroscopic assay using the equation Ki=(IC50-[E]/2)/(1+[S]/Km), where [E] and [S] are the PR and substrate concentrations, respectively (Maibaum & Rich J Med Chem 31(34):625-629 (1988)). The Ki values were measured at four to five substrate concentrations. The measurement was repeated at least three times to produce the average values.

[5] = target: dimerized mature HIV-1 protease (Human immunodeficiency virus type 1 group M subtype B, UniProt P12497); assay: Assay for effects on dimerized mature protease (cycloheximide, FRET); type: cell-based; conditions: 1 μM added on day 5 after cycloheximide 50 μg/ml
Procedure: […] Cellular protein synthesis was monitored every 24 hours by determining levels of p24 Gag protein produced into culture medium using the fully automated chemiluminescent enzyme immunoassay system (Lumipulse F; Fujirebio Inc., Tokyo, Japan). The cells were exposed to TMC114 (1 μM) on day 5 and beyond of culture and analyzed under Fluoview FV500 confocal laser scanning microscope (OLYMPUS Optical Corp) at room temperature.
When the CFP^A/B ratios determined were greater than 1.0, it was determined that HIV-1 protease had been generated and dimerization had occurred. The production of HIV-1 was monitored every 24 hours following transfection by determining levels of p24 Gag protein produced into culture medium as described by Koh et al. Antimicrob Agents Chemother 47:3123-9 (2003).
Dissociation of already formed dimer. TMC114 was examined for its ability to dissociate the protease once dimerized within cells producing infectious HIV-1 virions. Cos-7 cells were co-transfected with wild-type pNLPR-CFP and -YFP plasmids, exposed to cycloheximide (50 μg/mL) in 24, 48, 72, and 96 hrs of culture and beyond, the cells exposed to 1 μM TMC114 on day 5 of culture and beyond, cellular protein synthesis was monitored every 24 hours by determining levels of p24 Gag protein produced into culture medium, and the values of the ratio were determined at various time points. […]

[6] = Human immunodeficiency virus 1, MT2, 168 h, read-out: IC50 against HIV-1LAI, MT-2 cells, 100 TCID50 of HIV-1LAI, MTT assay on day 7
[7] = Human immunodeficiency virus 1, MT2, 168 h, read-out: MTT assay (IC50, nM), Human CD4+ MT-2 cells, 100 TCID50 of HIV-1LAI, day 7
[8] = MT-2 cells, 100 TCID50 of HIV-1LAI, MTT assay on day 7, read-out: IC50 against HIV-1LAI

CC(C)CN(CC(O)C(Cc1ccccc1)NC(=O)OC1COC2OCCC12)S(=O)(=O)c1ccc(N)cc1 (centres unmarked)
IC50 [1]: 4.5 nM

Cc1ccc(S(=O)(=O)N(CC(C)C)CC(O)C(Cc2ccccc2)NC(=O)OC2COC3OCCC23)cc1 (centres unmarked)
IC50 [1]: 3.5 nM

COc1ccc(S(=O)(=O)N(CC(C)C)CC(O)C(Cc2ccccc2)NC(=O)OC2COC3OCCCC23)cc1 (centres unmarked)
IC50 [1]: 4.5 nM

Nc1nc(NC2CC2)c2ncn([C@H]3C=C[C@@H](CO)C3)c2n1 [ABC, abacavir]
inhibition of protease dimerization ([2]; 10 μM, Cos-7 cells): failed to inhibit the dimerization
inhibition of protease dimerization ([2]; 10 μM, Cos-7 cells, listed as abacavir): did not block the dimerization; also recorded: failed to inhibit HIV-1 protease dimerization

Cc1nc(COc2ccc(C[C@H](NC(=O)O[C@H]3CO[C@H]4OCC[C@H]43)[C@H](O)CN(CC(C)C)S(=O)(=O)c3ccc4c(c3)OCO4)cc2)cs1 [BCV, brecanavir]
IC50 [3, 6]: 0.2 nM
inhibition of protease dimerization ([2]; 1 μM, Cos-7 cells): disrupt protease dimerization
dose response of dimerization inhibition [2]: Dose-responsive dimerization inhibition
Ki [4]: 0.0068 nM

CC(C)CN(C[C@@H](O)[C@H](Cc1ccccc1)NC(=O)O[C@H]1CO[C@H]2OCC[C@H]21)S(=O)(=O)c1ccc(N)cc1 [DRV, darunavir]
IC50 [3, 6]: 3 nM
IC50 [3, 7]: ~3 nM
inhibition of protease dimerization ([2]; 1 μM, Cos-7 cells): disrupt protease dimerization
inhibition of protease dimerization ([2]; 1 μM, Cos-7 cells, listed as TMC114): dimerization was effectively blocked; also recorded: blocked the dimerization; also recorded: blocked protease dimerization
concentration effectively blocking FRET / disrupting protease dimerization ([2]; in culture, Cos-7 cells): 0.1 µM
dissociation of already dimerized protease [5]: failed to dissociate mature protease dimer
dissociation of already dimerized protease ([5]; listed as TMC114): no inhibition of FRET was detected; also recorded: did not appear to reverse the dimerization

O=C1Nc2ccc(Cl)cc2[C@@](C#CC2CC2)(C(F)(F)F)O1 [EFV, efavirenz]
inhibition of protease dimerization ([2]; 1 μM, Cos-7 cells): failed to inhibit the dimerization
inhibition of protease dimerization ([2]; 1 μM, Cos-7 cells, listed as efavirenz): did not block the dimerization; also recorded: failed to inhibit HIV-1 protease dimerization

COc1ccc(S(=O)(=O)N(CC(C)C)C[C@@H](O)[C@H](Cc2ccccc2)NC(=O)C[C@H]2CO[C@H]3OCC[C@@H]23)cc1 [GRL-0026A]
IC50 [3, 8]: 480 nM
dose response of dimerization inhibition [2]: Dose-responsive dimerization inhibition

CC(C)CN(C[C@@H](O)[C@H](Cc1ccccc1)NC(=O)O[C@@H]1C[C@@H]2CCO[C@@H]2C1)S(=O)(=O)c1ccc(CO)cc1 [GRL-06579A]
IC50 [3, 8]: 1 nM
inhibition of protease dimerization ([2]; 1 μM, Cos-7 cells): dimerization was effectively blocked; also recorded: disrupt protease dimerization
Ki ([4]; wild-type PR, pH 5.0, read-out: Ki against HIV-1 protease): 0.0035 nM

Cc1ccnc2c1NC(=O)c1cccnc1N2C1CC1 [NVP, nevirapine]
inhibition of protease dimerization ([2]; 1 μM, Cos-7 cells): failed to inhibit the dimerization
inhibition of protease dimerization ([2]; 1 μM, Cos-7 cells, listed as nevirapine): did not block the dimerization; also recorded: failed to inhibit HIV-1 protease dimerization

COc1ccc(S(=O)(=O)N(CC(C)C)CC(O)C(Cc2ccccc2)NC(=O)OC2COC3OCCC23)cc1 (centres unmarked) [TMC126]
IC50 [3, 6]: 0.3 nM
IC50 [3, 7]: 0.3 nM
inhibition of protease dimerization ([2]; 1 μM, Cos-7 cells): dimerization was effectively blocked; also recorded: disrupt protease dimerization
dose response of dimerization inhibition [2]: Dose-responsive dimerization inhibition

CCC[C@@]1(CCc2ccccc2)CC(O)=C([C@H](CC)c2cccc(NS(=O)(=O)c3ccc(C(F)(F)F)cn3)c2)C(=O)O1 [TPV, tipranavir]
IC50 [3, 6]: 100 nM

CCCCN1C(=O)[C@@H]([C@H](O)C2CCCCC2)NC(=O)C12CCN(Cc1ccc(Oc3ccc(C(=O)O)cc3)cc1)CC2 [aplaviroc]
inhibition of protease dimerization ([2]; 1 μM, Cos-7 cells): did not block the dimerization; also recorded: failed to inhibit the dimerization; also recorded: failed to inhibit HIV-1 protease dimerization

COc1ccc(S(=O)(=O)N(CC(C)C)CC(O)C(Cc2ccccc2)NC(=O)OC2COC3OCCC23)cc1 (centres unmarked) [drawing 20]
IC50 [1]: 1.4 nM
